Laboratory results published in PMC8230474, “Synthesis of Novel Acyl Derivatives of 3-(4,5,6,7-Tetrabromo-1H-benzimidazol-1-yl)propan-1-ols—Intracellular TBBi-Based CK2 Inhibitors with Proapoptotic Properties” (International Journal of Molecular Sciences, 2021).
Read-outs that look alike come from different tables or passages of the source.

Legend:
PIM1 = PIM1 (Homo sapiens, UniProt P11309); test: Radiometric (P81 filter isotopic) kinase assay, PIM1; assay type: biochemical; conditions: for remaining activity at 5 µM / remaining activity at 10 µM: read-out: Residual Activity of the Enzyme PIM1; for Ki: calculated from IC50 by Cheng and Prusoff equation
[1] = biological target: CK2 holoenzyme (CK2 α2β2) (Homo sapiens, UniProt P68400); test: Radiometric (P81 filter isotopic) kinase assay, CK2 holoenzyme; assay type: biochemical; conditions: read-out: Residual Activity of the Enzyme CK2 α2β2
MCF-7 cells [2] = test: Cell cycle progression by flow cytometry, MCF-7; assay type: cell-based, human; conditions: MCF-7, 72 h, compound at its EC50
[3] = system: protein kinase CK2 in MDA-MB-231 cells; test: Intracellular inhibition of CK2, Western blot of p-Ser529 p65 and p-Ser129 Akt1, MDA-MB-231; assay type: cell-based, human; conditions: MDA-MB-231, 24 h treatment, compound at its 72-h EC50, relative to untreated control
Description: (§1) We observed an inhibition of CK2 in both cell lines; however, the lower efficiency of CK2 inhibition was detected in MCF-7 considering the extent of Akt1 phosphorylation. The relative level of the phosphorylation of the tested proteins in MDA-MB-231 cells was in the range of 0.32 to 0.80 for p-Ser529 p65 and 0.41 to 0.73 for p-Ser129 Akt1, whereas in MCF-7 cells it was in the range of 0.33 to 0.78 for p-Ser529 p65 and 0.82 to 1.23 for p-Ser129 Akt1, respectively. The lowest phosphorylation levels of the tested proteins were detected in MDA-MB-231 cells for compound 6b with the relative level of 0.41 for Ser129 Akt1 as well as for compound 6c with the relative level of 0.32 for p-Ser529 p65. Among the tested proteins, the lowest extent of phosphorylation in MCF-7 cells was detected for 6b with the relative level of 0.33 for p-Ser529 p65, and for 6a with the relative level of 0.82 for Ser129 Akt1.
The MCF-7 cells growing exponentially were seeded at 4.8 × 10^5 cells in 6-cm-diameter plates. Subsequently, compounds were added in a final concentration of 0.5% DMSO. […] The protein concentration was determined using Bradford assay. […]
For densitometry, immunoblots were quantified using the Fiji distribution of the ImageJ 1.52a software (National Institutes of Health, Bethesda, MD, USA, and the University of Wisconsin, Madison, WI, USA). […]

[4] = biological target: human CK2 catalytic subunit (CK2α) (Homo sapiens, UniProt P68400); test: Radiometric (P81 filter isotopic) kinase assay, CK2 catalytic subunit; assay type: biochemical; conditions: read-out: Residual Activity of the Enzyme CK2α
MCF-7 cells [5] = test: MTT viability assay, MCF-7; assay type: cell-based; conditions: Homo sapiens, read-out: EC50 ± SD MCF-7
Procedure: (§2) To test the anti-cancer effect of the TBBi derivatives, we treated the MCF-7 and MDA-MB-231 cells with the newly synthesized esters and previously reported compounds [34, 57] at the concentration range of 3.125 to 200 µM for 24 h, 48 h and 72 h. Additionally, the range of concentrations was extended by additional lower concentrations in MCF-7 for compound 4 with the minimum concentration of 0.195 µM. […] The EC50 values, describing the half maximal effective concentration of each tested compound, were calculated and are summarized in Table 2. […] We observed that the EC50 values increase in both cell lines with the elongation of fatty acids chain length in the tested compounds, thus strongly correlating with the decrease of their solubility in biological media as characterized by logS parameter (Table 2). The second reason for the decreased biological activity of the longer-chain aliphatic esters might be attributed to their greater resistance toward intracellular hydrolysis, which directly influences the slower release of the active form of the corresponding CK2 inhibitors. […] However, none of the tested compounds, except for compound 5, decreased the viability of both cell lines in a time-dependent manner (Figure 4).
(§3) MCF-7 and MDA-MB-231 were cultured in high-glucose Dulbecco’s modified Eagle medium (DMEM, Lonza, Basel, Switzerland) supplemented with 10% fetal bovine serum (FBS, EuroClone, Siziano, Italy)), 2 mM L-glutamine, and antibiotics (100 U/mL penicillin, 100 µg/mL streptomycin) (Sigma-Aldrich Chemical Company (St. Louis, MO, USA). Cells were grown in 75-cm^2 cell culture flasks (Sarstedt, Nümbrecht, Germany) in a humidified atmosphere of CO2/air (5%/95%) at 37 °C. All the experiments were performed in exponentially growing cultures. Stock solutions of the test compounds were prepared in DMSO and stored in −80 °C for a maximum of one month. For the cytotoxicity studies, stock solutions of the tested compounds were diluted 200-fold with the proper culture medium to obtain the final concentrations.
(§4) After incubation with the tested compounds, an MTT test was performed as described previously. Optical densities were measured at 570 nm using BioTek microplate reader (Winooski, VT, USA). All measurements were carried out in a minimum of three biological replicates.

MDA-MB-231 cells [6] = test: MTT viability assay, MDA-MB-231; assay type: cell-based; conditions: Homo sapiens, read-out: EC50 ± SD MDA-MB-231
Procedure: as §2, §3, §4

MDA-MB-231 cells [7] = test: Cleaved PARP1 Western blot, MDA-MB-231; assay type: cell-based, human; conditions: MDA-MB-231, 24-h treatment, compound at its EC50, untreated cells = one relative unit
[8] = system: protein kinase CK2 in MCF-7 cells; test: Intracellular inhibition of CK2, Western blot of p-Ser529 p65 and p-Ser129 Akt1, MCF-7; assay type: cell-based, human
Description: as §1
Considering an inefficient inhibition of CK2 in MCF-7, we evaluated an inhibition of CK2 in this cell line after 72 h. […] The relative levels were in the range of 0.17 to 0.8 for p-Ser529 p65 and 0.19 to 0.79 for p-Ser129 Akt1.
The MCF-7 cells growing exponentially were seeded at 4.8 × 10^5 cells in 6-cm-diameter plates. Subsequently, compounds were added in a final concentration of 0.5% DMSO. After incubation, floating cells were collected and cell monolayer was washed three times in ice-cold PBS and the cells were scraped, combined with floating cells and lysed in RIPA buffer consisting of 50 mM Tris-HCl (pH 7.4), 1% NP-40, 0.5% sodium deoxycholate, 0.1% SDS, 150 mM NaCl, 2 mM EDTA, 50 mM NaF, 0.2 mM sodium orthovanadate, and protease inhibitors cocktail. Subsequently, cells were sonicated (three times for 15 s), centrifuged at 20,000× g for 15 min at 4 °C, and the supernatants were collected and stored at −80 °C. The protein concentration was determined using Bradford assay. Then, supernatants were incubated with the Laemmli buffer for 5 min at 98 °C. Equal amounts of total protein (10 to 20 μg) were analyzed by SDS-PAGE, and subsequently, Western blotting was performed using primary antibodies in blocking buffer containing either 3% BSA (bovine serum albumin) or 3% milk in TBS-T (Tris-buffered saline (10 mM Tris-HCl (pH 8), 150 mM NaCl) containing 0.1% Tween 20 or 0.2% Triton X-100) for 1 h. After overnight incubation at 4 °C with the primary antibodies, the membranes were washed with TBS-T and probed with the respective secondary antibodies. The ECL substrate was used for detection and immunoblots were scanned using G Box Chemi (Syngene, Cambridge, UK) with GeneSys software (Syngene, Cambridge, UK) or were developed with the use of X-rays films. UV-irradiated Jurkat cells were used as a positive control in Western blot analysis of c-PARP1. After 2 h, one-minute UV-irradiated Jurkat leukemic T-cell line was lysed and subjected to analysis.
For densitometry, immunoblots were quantified using the Fiji distribution of the ImageJ 1.52a software (National Institutes of Health, Bethesda, MD, USA, and the University of Wisconsin, Madison, WI, USA). Phosphorylated protein densities were normalized to GAPDH densities, assuming 1 for untreated cells and then they were converted to a percent of the appropriate control.

[9] = set-up: method as in PMID 8876860, PMID 9760686; conditions: higher than the parent anti-herpesvirus agent; cited from earlier work
MCF-7 cells [10] = test: Annexin V-FITC/PI flow cytometry, MCF-7; assay type: cell-based, human; conditions: MCF-7, 72 h treatment, compound at its EC50
Procedure: Additionally, assaying annexin V-binding to phosphatidylserine by means of flow cytometry confirmed that derivatives 3c and 6a–c induced apoptosis in both cell lines (Figure 9, Figure S3).
MCF-7 cells were seeded in six-well plates at 1.5 × 10^5 cells/well. […] Then, the plates were incubated for 24 h or 72 h. After exposure to the examined compounds, the floating cells were collected, and monolayer cell culture was trypsinized. The cells were centrifugated at 200× g at 4 °C for 5 min, washed twice in cold phosphate-buffered saline (PBS), and subsequently suspended in binding buffer at 1 × 10^6 cells/mL. Subsequently, 100-μL aliquots of the cell suspension were labeled according to the kit manufacturer’s instructions. Briefly, annexin V-fluorescein isothiocyanate and propidium iodide (BD Biosciences, Pharmingen, San Diego, CA, USA) were added to the cell suspension, and the mixture was vortexed and then incubated for 15 min at RT in the dark. A cold binding buffer (900 μL) was then added and the cells were vortexed again and kept on ice. Flow cytometric measurements were performed within 1 h after labeling. Viable, necrotic, early, and late apoptotic cells were detected by flow cytometry using CyFlow Cube 8 (Sysmex, Norderstedt, Germany) flow cytometer.

[11] = MCF-7, 72 h treatment, compound at its EC50, relative to untreated control

PIM1, sequence (P11309 whole entry, species assumed): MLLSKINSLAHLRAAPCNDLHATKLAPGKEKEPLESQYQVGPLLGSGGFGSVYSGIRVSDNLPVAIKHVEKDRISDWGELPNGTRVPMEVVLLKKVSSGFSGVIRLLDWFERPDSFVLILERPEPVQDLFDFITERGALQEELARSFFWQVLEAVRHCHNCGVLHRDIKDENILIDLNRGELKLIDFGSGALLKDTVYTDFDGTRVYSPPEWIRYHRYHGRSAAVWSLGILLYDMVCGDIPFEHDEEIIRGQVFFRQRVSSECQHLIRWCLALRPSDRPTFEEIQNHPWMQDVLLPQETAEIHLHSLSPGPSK
human CK2 catalytic subunit (CK2α), sequence (P68400 whole entry): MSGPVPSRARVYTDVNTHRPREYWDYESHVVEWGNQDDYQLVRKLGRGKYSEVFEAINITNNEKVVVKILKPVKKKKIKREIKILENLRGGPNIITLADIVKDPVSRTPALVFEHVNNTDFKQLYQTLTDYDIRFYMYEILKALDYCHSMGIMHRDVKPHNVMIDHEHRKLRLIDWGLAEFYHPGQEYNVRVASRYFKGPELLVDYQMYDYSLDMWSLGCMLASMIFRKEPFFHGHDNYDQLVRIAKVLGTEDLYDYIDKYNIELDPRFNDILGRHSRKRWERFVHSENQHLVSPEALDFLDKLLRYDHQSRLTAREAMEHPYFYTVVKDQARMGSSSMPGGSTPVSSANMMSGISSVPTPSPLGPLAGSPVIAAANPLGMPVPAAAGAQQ
CK2 holoenzyme (CK2 α2β2), sequence (P68400 whole entry): as above
CK2 holoenzyme (CK2 α2β2), sequence (P67870 whole entry partner): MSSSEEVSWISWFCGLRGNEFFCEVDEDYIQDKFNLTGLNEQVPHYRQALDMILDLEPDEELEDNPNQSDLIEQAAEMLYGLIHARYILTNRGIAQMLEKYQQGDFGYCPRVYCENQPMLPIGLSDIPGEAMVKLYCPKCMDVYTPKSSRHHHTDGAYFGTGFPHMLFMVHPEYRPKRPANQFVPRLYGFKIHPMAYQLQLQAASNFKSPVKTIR

| remaining activity at 5 µM (PIM1; 5 µM compound) | remaining activity at 10 µM (PIM1; 10 µM compound) | remaining activity at 5 µM ([1]; 5 µM compound) | remaining activity at 10 µM ([1]; 10 µM compound) | melting point | remaining activity at 5 µM ([4]; 5 µM compound) | remaining activity at 10 µM ([4]; 10 µM compound) | EC50 (MCF-7 cells [5]; MCF7, 24 h) | EC50 (MCF-7 cells [5]; MCF7, 48 h) | EC50 (MCF-7 cells [5]; MCF7, 72 h) | EC50 (MDA-MB-231 cells [6]; 24 h) | EC50 (MDA-MB-231 cells [6]; 48 h) | EC50 (MDA-MB-231 cells [6]; 72 h) | Structure (SMILES) | cells in G1 (MCF-7 cells [2]) | cells in G2M (MCF-7 cells [2]) | cells in S (MCF-7 cells [2]) | Ki (PIM1) | other results |
| --- | --- | --- | --- | --- | --- | --- | --- | --- | --- | --- | --- | --- | --- | --- | --- | --- | --- | --- |
| 95.2 ± 9.4% | 79.8 ± 8.6% | 90.2 ± 4.7% | 80.8 ± 1.9% | 61 to 65 °C | 89.9 ± 5.2% | 84.3 ± 10.4% | 25.6 ± 12.3 µM | 20.5 ± 2.92 µM | 14.8 ± 2.14 µM | 61.3 ± 2.23 µM | 29.8 ± 9.85 µM | 21.3 ± 2.24 µM | CCCCCCCC(=O)OCCCn1c(C)nc2c(Br)c(Br)c(Br)c(Br)c21 [Compound 6c, 3-(4,5,6,7-Tetrabromo-2-methyl-1H-benzimidazol-1-yl)propyl octanoate] | 58.9% | 13.4% | 27.7% | – | relative level of p-Ser529 p65 [3]: 0.32; relative level of c-PARP1 (MDA-MB-231 cells [7]): 7.14 |
| 38.8 ± 3.1% | 19 ± 0.1% | 75.6 ± 5.9% | 49.6 ± 0.8% | 81 to 82 °C | 81.5 ± 8% | 68.4 ± 9.8% | 20.2 ± 1.74 µM | 18.1 ± 0.52 µM | 16.5 ± 1.13 µM | 52.2 ± 11.7 µM | 20.5 ± 1.97 µM | 16.9 ± 4.07 µM | CCCC(=O)OCCCn1c(C)nc2c(Br)c(Br)c(Br)c(Br)c21 [Compound 6a, 3-(4,5,6,7-Tetrabromo-2-methyl-1H-benzimidazol-1-yl)propyl butanoate] | 56.3% | 18.5% | 25.2% | 1.94 ± 0.16 µM | relative level of p-Ser129 Akt1 ([8]; MCF-7, 24 h treatment, compound at its 72-h EC50, relative to untreated control): 0.82; relative level of p-Ser129 Akt1 [8, 11]: 0.30; relative level of p-Ser529 p65 [8, 11]: 0.19 |
| – | – | – | – | – | – | – | – | – | – | – | – | – | CC(=O)OCC(CCn1cnc2cnc(N)nc21)COC(C)=O [famciclovir] | – | – | – | – | bioavailability relative to parent penciclovir [9]: 15 fold |

| Structure (SMILES) | remaining activity at 5 µM (PIM1; 5 µM compound) | remaining activity at 10 µM (PIM1; 10 µM compound) | remaining activity at 5 µM ([1]; 5 µM compound) | remaining activity at 10 µM ([1]; 10 µM compound) | melting point | remaining activity at 5 µM ([4]; 5 µM compound) | remaining activity at 10 µM ([4]; 10 µM compound) | EC50 (MCF-7 cells [5]; MCF7, 24 h) | EC50 (MCF-7 cells [5]; MCF7, 48 h) | EC50 (MCF-7 cells [5]; MCF7, 72 h) | EC50 (MDA-MB-231 cells [6]; 24 h) | EC50 (MDA-MB-231 cells [6]; 48 h) | EC50 (MDA-MB-231 cells [6]; 72 h) | cells in G1 (MCF-7 cells [2]) | cells in G2M (MCF-7 cells [2]) | cells in S (MCF-7 cells [2]) | Ki (PIM1) | other results |
| --- | --- | --- | --- | --- | --- | --- | --- | --- | --- | --- | --- | --- | --- | --- | --- | --- | --- | --- |
| Brc1c(Br)c(Br)c2[nH]cnc2c1Br [Compound 1, 4,5,6,7-tetrabromo-1H-benzimidazole, reference compound] | – | – | – | – | – | – | – | 20.8 ± 1.49 µM | 18.8 ± 1.6 µM | 16.9 ± 1.36 µM | 51.9 ± 14.4 µM | 25.1 ± 2.04 µM | 24.9 ± 0.25 µM | 57.7% | 17.2% | 25.1% | 0.27 µM | necrotic cells (of total cells) (MCF-7 cells [10]): 25%; remaining activity at 5 µM (PIM1): 11.2 ± 0.2%; remaining activity at 10 µM (PIM1): 5.7 ± 0.5%; remaining activity at 5 µM [1]: 9.6 ± 2.6%; remaining activity at 10 µM [1]: 5 ± 1.2%; remaining activity at 5 µM [4]: 19.3 ± 0.2%; remaining activity at 10 µM [4]: 12.4 ± 0.1% |
